Test results taken from patent US5817840A, “Water soluble taxol derivatives” (The Scripps Research Institute, priority 1997, dated 1998).
pIC50: −log10 of the molar value. Where two headings read alike, the source gives them in different places.

Key:
[1] = tested on: PC-3 (human prostate adenocarcinoma); experiment: Cytotoxicity, Example 8; assay type: cell-based
Protocol: (§1) Tumor or normal cells were cultured in 96-well plates with the test compound in 200 μl of RPMI supplemented with 10% fetal bovine serum (Hyclone, Salt Lake City, Utah) at 37° C. in a humidified atmosphere containing 5% CO2 in air for 72 hours. Sulforhodamine B dissolved in 1% acetic acid was added, and the plates were incubated for 30 minutes at ambient temperature, washed with 1% acetic acid, and blotted. To the air-dried plates were added 100 μl of […] unbuffered TRIS base (pH 10.5) with shaking. The optical densities of the plates were measured with a microplate reader (Molecular Devices Thermomax) at 540 nm. The concentration of compound required to reduce the absorbance to 50% of control samples was recorded as IC50.
(§2) NHDF: Normal human dermal fibroblast (available from Clouelics Corp., San Diego, Calif.); HLF-1: Normal human diploid lung; W1-38; Normal human diploid lung; CHO; Chinese hamster ovary; SK-MEL-28: Melanoma; CAPAN-1: Pancreatic carcinoma; H322: lung carcinoma; MCF-7; Breast carcinoma; BT-549; Human breast ductal carcinoma; OVCAR-3: Human ovarian carcinoma; HT-29: Human adenocarcinoma, colon; SIHA: Human squamous carcinoma crvx; 786-0: Human perirenal cell adenocarci; PC-3: Human prostate adenocarcinoma; HL-60: Human promyelomic leukemia; MOLT-4: Human T-cell leukemia. All cell lines except NHDF are available from the American Tissue Culture Collection, Rockville, Md.

[2] = tested on: NHDF (normal human dermal fibroblast); experiment: Cytotoxicity, Example 8; assay type: cell-based
Protocol: as §1, §2

[3] = tested on: OVCAR-3 (human ovarian carcinoma); experiment: Cytotoxicity, Example 8; assay type: cell-based
Protocol: as §1, §2

H322 (lung carcinoma) [4] = experiment: Cytotoxicity, Example 8; assay type: cell-based
Protocol: as §1, §2

[5] = tested on: CAPAN-1 (pancreatic carcinoma); experiment: Cytotoxicity, Example 8; assay type: cell-based; details: Homo sapiens
Protocol: as §1, §2

[6] = tested on: CHO (Chinese hamster ovary); experiment: Cytotoxicity, Example 8; assay type: cell-based; details: Cricetulus griseus
Protocol: as §1, §2

[7] = tested on: S1HA (human squamous carcinoma crvx); experiment: Cytotoxicity, Example 8; assay type: cell-based
Protocol: as §1, §2

[8] = tested on: BT-549 (human breast ductal carcinoma); experiment: Cytotoxicity, Example 8; assay type: cell-based
Protocol: as §1, §2

[9] = tested on: W1-38 (normal human diploid lung); experiment: Cytotoxicity, Example 8; assay type: cell-based
Protocol: as §1, §2

[10] = tested on: 786-0 (human perirenal cell adenocarci); experiment: Cytotoxicity, Example 8; assay type: cell-based
Protocol: as §1, §2

[11] = tested on: HLF-1 (normal human diploid lung); experiment: Cytotoxicity, Example 8; assay type: cell-based
Protocol: as §1, §2

MCF-7 (breast carcinoma) [12] = experiment: Cytotoxicity, Example 8; assay type: cell-based; details: Homo sapiens
Protocol: as §1, §2

SK-MEL-28 (melanoma) = experiment: Cytotoxicity, Example 8; assay type: cell-based; details: Homo sapiens
Protocol: as §1, §2

[13] = tested on: HT-29 (human adenocarcinoma, colon); experiment: Cytotoxicity, Example 8; assay type: cell-based
Protocol: as §1, §2

[14] = tested on: BT-549 (breast carcinoma); experiment: Cytotoxicity (sulphorhodamine B), cancer cell line, Table 1B; assay type: cell-based; details: Homo sapiens, BT-549, 72 h
SK (melanoma) = experiment: as above; assay type: cell-based; details: 72 h
[15] = tested on: RPMI-7666 (normal human PBLs); experiment: Cytotoxicity (sulphorhodamine B), normal cell line, Table 1B; assay type: cell-based; details: 72 h
NHDF (normal human skin) = experiment: as above; assay type: cell-based; details: 72 h
[16] = tested on: MOLT-4 (T-cell leukaemia); experiment: Cytotoxicity (sulphorhodamine B), cancer cell line, Table 1B; assay type: cell-based; details: Homo sapiens, MOLT-4, 72 h
SIHA (cervix carcinoma) = experiment: as above; assay type: cell-based; details: Homo sapiens, SiHa, 72 h
[17] = tested on: CHO (normal human mammary); experiment: Cytotoxicity (sulphorhodamine B), normal cell line, Table 1B; assay type: cell-based; details: Homo sapiens, 72 h
[18] = tested on: BALB/c 3T3 (normal mouse embryo); experiment: as above; assay type: cell-based; details: BALB/c3T3, 72 h
Capan-1 (pancreatic) = experiment: Cytotoxicity (sulphorhodamine B), cancer cell line, Table 1B; assay type: cell-based; details: Homo sapiens, CAPAN-1, 72 h
[19] = tested on: PC-3 (prostate carcinoma); experiment: as above; assay type: cell-based; details: Homo sapiens, 72 h
[20] = tested on: HL-60 (promyel carcinoma); experiment: as above; assay type: cell-based; details: Homo sapiens, HL-60, 72 h
[21] = tested on: broad spectrum of cell lines; experiment: Cytotoxicity against a broad spectrum of cell lines (overall); details: three-day exposure; compared with taxol
Protocol: The protaxols synthesized in this study were tested against a broad spectrum of cell lines ranging from the multiple-drug resistant ovarian (OVCAR-3) to lung (H-322) and leukemia (MOLT-4) cells in order to assess cytotoxicity, cell-type selectivity, and duration of action.
The cytotoxicities were determined using the sulphorhodamine B assay method (Skehan, P. et al. J. Nat. Canc. Inst. 82, 1107 (1990)).

MCF-7 (breast carcinoma) [22] = experiment: Cytotoxicity (sulphorhodamine B), cancer cell line, Table 1B; assay type: cell-based; details: Homo sapiens, MCF7, 72 h
L1210 (mouse leukaemia) = experiment: as above; assay type: cell-based; details: L1210, 72 h
[23] = tested on: OVCAR-3 (ovarian carcinoma); experiment: as above; assay type: cell-based; details: Homo sapiens, OVCAR-3, 72 h
[24] = tested on: 786-0 (renal cell carcinoma); experiment: as above; assay type: cell-based; details: Homo sapiens, 786-0, 72 h
[25] = tested on: UCLA-P-3 (lung carcinoma); experiment: as above; assay type: cell-based; details: Homo sapiens, UCLA P-3, 72 h
HT-29 (colon carcinoma) = experiment: as above; assay type: cell-based; details: Homo sapiens, HT-29, 72 h
[26] = tested on: CHO (Chinese hamster ovary); experiment: Cytotoxicity (sulphorhodamine B), normal cell line, Table 1B; assay type: cell-based; details: Cricetulus griseus, 72 h
H322 (lung carcinoma) [27] = experiment: Cytotoxicity (sulphorhodamine B), cancer cell line, Table 1B; assay type: cell-based; details: NCI-H322, 72 h

Structure (SMILES): CC(=O)O[C@H]1C(=O)[C@@]2(C)[C@H]([C@H](OC(=O)c3ccccc3)[C@]3(O)C[C@H](OC(=O)[C@H](OC(=O)CSCC(=O)O)[C@@H](NC(=O)c4ccccc4)c4ccccc4)C(C)=C1C3(C)C)[C@]1(OC(C)=O)CO[C@@H]1C[C@@H]2O [Compound 4, 2'-thiodiglycolic taxol]
- pIC50 ([1]; 72 h): 4.00
- pIC50 ([2]; 72 h): 4.30
- pIC50 ([3]; OVCAR-3, 72 h): 6.41
- pIC50 (H322 (lung carcinoma) [4]; NCI-H322, 72 h): 5.51
- pIC50 ([5]; CAPAN-1, 72 h): 6.72
- pIC50 ([6]; 72 h): 4.30
- pIC50 ([7]; 72 h): 4.30
- pIC50 ([8]; BT-549, 72 h): 4.80
- pIC50 ([9]; W138, 72 h): 4.89
- pIC50 ([10]; 786-0, 72 h): 5.20
- pIC50 ([11]; HLF1, 72 h): 5.51
- pIC50 (MCF-7 (breast carcinoma) [12]; MCF7, 72 h): 4.00
- pIC50 (SK-MEL-28 (melanoma); SK-MEL-28, 72 h): 4.00
- pIC50 ([13]; HT-29, 72 h): 6.72

Structure (SMILES): CC(=O)O[C@H]1C(=O)[C@@]2(C)[C@H]([C@H](OC(=O)c3ccccc3)[C@]3(O)C[C@H](OC(=O)[C@H](OC(=O)C[S+]([O-])CC(=O)O)[C@@H](NC(=O)c4ccccc4)c4ccccc4)C(C)=C1C3(C)C)[C@]1(OC(C)=O)CO[C@@H]1C[C@@H]2O (stereo partly shown) [Example 3a]
- pIC50 ([1]; PC-3, 72 hours, read-out: IC50): 4.30
- pIC50 ([2]; 72 hours, read-out: IC50): 4.30
- pIC50 ([3]; OVCAR-3, 72 hours, read-out: IC50): 7.01
- pIC50 (H322 (lung carcinoma) [4]; NCI-H322, H322, 72 hours, read-out: IC50): 5.08
- pIC50 ([5]; Capan-1, 72 hours, read-out: IC50): 6.06
- pIC50 ([6]; CHO, 72 hours, read-out: IC50): 4.00
- pIC50 ([7]; S1HA, 72 hours, read-out: IC50): 4.60
- pIC50 ([8]; BT-549, 72 hours, read-out: IC50): 7.01
- pIC50 ([9]; W138, W1-38, 72 hours, read-out: IC50): 4.60
- pIC50 ([10]; 786-0, 72 hours, read-out: IC50): 6.82
- pIC50 ([11]; HLF1, HLF-1, 72 hours, read-out: IC50): 4.60
- pIC50 (MCF-7 (breast carcinoma) [12]; MCF7, MCF-7, 72 hours, read-out: IC50): 4.41
- pIC50 (SK-MEL-28 (melanoma); SK-MEL-28, 72 hours, read-out: IC50): 4.00
- pIC50 ([13]; HT-29, 72 hours, read-out: IC50): 7.01

Structure (SMILES): COC(=O)CS(=O)(=O)CC(=O)O[C@@H](C(=O)O[C@H]1C[C@@]2(O)[C@@H](OC(=O)c3ccccc3)[C@@H]3[C@]4(OC(C)=O)CO[C@@H]4C[C@H](O)[C@@]3(C)C(=O)[C@H](OC(C)=O)C(=C1C)C2(C)C)[C@@H](NC(=O)c1ccccc1)c1ccccc1 [Compound 6]
- pIC50 [14]: 9.00
- pIC50 (SK (melanoma)): 5.00
- pIC50 [15]: 4.00
- pIC50 (NHDF (normal human skin)): 6.00
- pIC50 [16]: 7.00
- pIC50 (SIHA (cervix carcinoma)): 4.00
- pIC50 [17]: 4.00
- pIC50 [18]: 5.00
- pIC50 (Capan-1 (pancreatic)): 7.00
- pIC50 [19]: 6.00
- pIC50 [20]: 7.00
- cytotoxicity (in words) [21]: lower cytotoxicities
- pIC50 (MCF-7 (breast carcinoma) [22]): 5.00
- pIC50 (L1210 (mouse leukaemia)): 5.00
- pIC50 [23]: 6.00
- pIC50 [24]: 5.00
- pIC50 [25]: > 9.00
- pIC50 (HT-29 (colon carcinoma)): 7.00
- pIC50 [26]: 4.00
- pIC50 (H322 (lung carcinoma) [27]): 7.00

Structure (SMILES): CC(=O)O[C@H]1C(=O)[C@@]2(C)[C@H]([C@H](OC(=O)c3ccccc3)[C@]3(O)C[C@H](OC(=O)[C@H](OC(=O)COCC(=O)O)[C@@H](NC(=O)c4ccccc4)c4ccccc4)C(C)=C1C3(C)C)[C@]1(OC(C)=O)CO[C@@H]1C[C@@H]2O [Compound 3]
- pIC50 ([1]; 72 h): 4.19
- pIC50 ([2]; 72 h): 3.99
- pIC50 ([3]; OVCAR-3, 72 h): 7.01
- pIC50 (H322 (lung carcinoma) [4]; NCI-H322, 72 h): 3.69
- pIC50 ([5]; CAPAN-1, 72 h): 7.01
- pIC50 ([6]; 72 h): 4.00
- pIC50 ([7]; 72 h): 2.95
- pIC50 ([8]; BT-549, 72 h): 4.29
- pIC50 ([9]; W138, 72 h): 4.28
- pIC50 ([10]; 786-0, 72 h): 6.82
- pIC50 ([11]; HLF1, 72 h): 4.23
- pIC50 (MCF-7 (breast carcinoma) [12]; MCF7, 72 h): 3.45
- pIC50 (SK-MEL-28 (melanoma); SK-MEL-28, 72 h): 4.00
- pIC50 ([13]; HT-29, 72 h): 8.00

Structure (SMILES): CC(=O)O[C@H]1C(=O)[C@@]2(C)[C@H]([C@H](OC(=O)c3ccccc3)[C@]3(O)C[C@H](OC(=O)[C@H](OC(=O)OCCS(=O)(=O)c4ccc([N+](=O)[O-])cc4)[C@@H](NC(=O)c4ccccc4)c4ccccc4)C(C)=C1C3(C)C)[C@]1(OC(C)=O)CO[C@@H]1C[C@@H]2O [Compound 9]
- pIC50 [14]: 7.00
- pIC50 (SK (melanoma)): 5.00
- pIC50 [15]: 4.00
- pIC50 (NHDF (normal human skin)): 6.00
- pIC50 [16]: 9.00
- pIC50 (SIHA (cervix carcinoma)): 5.00
- pIC50 [17]: 4.00
- pIC50 [18]: 5.00
- pIC50 (Capan-1 (pancreatic)): 6.00
- pIC50 [19]: 6.00
- pIC50 [20]: 7.00
- cytotoxicity (in words) [21]: lower cytotoxicities
- pIC50 (MCF-7 (breast carcinoma) [22]): 5.00
- pIC50 (L1210 (mouse leukaemia)): 6.00
- pIC50 [23]: 6.00
- pIC50 [24]: 6.00
- pIC50 [25]: > 9.00
- pIC50 (HT-29 (colon carcinoma)): 7.00
- pIC50 [26]: 4.00
- pIC50 (H322 (lung carcinoma) [27]): 6.00
